Values joined by “and” are separate entries in the source; they are usually repeats but may differ in a detail not shown here. Identical values can stand only once. Like-named read-outs stand apart in the source and are kept apart here.
Tests used:
Gardner lymphosarcoma = test: Activity versus Gardner Lymphosarcoma in mice; format: in vivo; conditions: 9 days, usually intraperitoneal
Protocol: The following table--Table 1--gives the results of experiments in which mice bearing transplanted Gardner lymphosarcoma were treated successfully with a compound of this invention. In the table, column 1 gives the name of the compound; column 2, the dose level and column 3, the percent inhibition of tumor growth.

P388 leukemia = test: Activity against P388 leukemia in mice; format: in vivo; conditions: 3 days apart
[1] = system: experimental malignancies; conditions: animals; cited from earlier work
P1534 murine leukemia = conditions: Hargrove, Lloydia 1964, cited from earlier work
tumor = conditions: Owellen 1975; Cullinan 1975; cited from earlier work
[2] = Stability on standing in air; format: physicochemical; conditions: upon standing in air
pKa titration = format: physicochemical; conditions: for pKa: 66 percent dmf, in 66 percent DMF
Protocol: A reaction mixture containing 450 mg. of leurosine, 15 ml. of tetrahydrofurane (THF), 8 ml. of anhydrous hydrazine, and 6 ml. of methanol were heated in a sealed glass bomb for 3 days at 50° C. The bomb was opened, the solvents removed in vacuo, and the resulting residue comprising 4-desacetylleurosine C-3 carboxhydrazide formed in the above reaction, was dissolved in methylene dichloride. The methylene dichloride solution was washed with water and dried. Removal of the solvent in vacuo yielded 4-desacetylleurosine C-3 carboxhydrazide as a residue shown by TLC to contain trace quantities of leurosine and of 4-desacetylleurosine. Pure 4-desacetylleurosine C-3 carboxhydrazide (1-spot material) was prepared by chromatographing the residue over silica using 1:1:1 methylenedichloride/ethyl acetate/methanol as the eluant. Fractions shown by TLC to contain 4-desacetylleurosine C-3 carboxhydrazide were combined.
Titration; pKa at 5.3, 7.0

[3] = titration, free base, solvent not stated

CCC12CN3CCc4c([nH]c5ccccc45)C(C(=O)OC)(c4cc5c(cc4OC)N(C)C4C(O)(C(=O)NCCO)C(O)C6(CC)C=CCN7CCC54C76)CC(C3)C1O2 (stereo not drawn) [4-Desacetylleurosine C-3 N-(β-hydroxyethyl)carboxamide]
Percent Inhibition of tumor growth (Gardner lymphosarcoma; 6 mg/kg per day): 100%
Percent Inhibition of tumor growth (Gardner lymphosarcoma; 12 mg/kg per day): 100% and 98%

CCC12CN3CCc4c([nH]c5ccccc45)C(C(=O)OC)(c4cc5c(cc4OC)N(C=O)C4C(O)(C(N)=O)C(O)C6(CC)C=CCN7CCC54C76)CC(C3)C1O2 (stereo not shown) [4-desacetylleuroformine C-3 carboxamide, 4-Desacetylleuroformine C-3 Carboxamide]
Percent Inhibition of tumor growth (Gardner lymphosarcoma; 12 mg/kg per day): 39%

CCC12CN3CCc4c([nH]c5ccccc45)C(C(=O)OC)(c4cc5c(cc4OC)N(C)C4C(O)(C(=O)NC)C(O)C6(CC)C=CCN7CCC54C76)CC(C3)C1O2 (stereo not shown) [4-Desacetylleurosine C-3 N-Methyl Carboxamide]
Percent Inhibition of tumor growth (Gardner lymphosarcoma; 3 mg/kg per day): 33%
Percent Inhibition of tumor growth (Gardner lymphosarcoma; 6 mg/kg per day): 100%
Toxicity (printed in Percent Inhibition column) (Gardner lymphosarcoma; 12 mg/kg per day): Toxic

CCC12CN3CCc4c([nH]c5ccccc45)C(C(=O)OC)(c4cc5c(cc4OC)N(C)C4C(O)(C(=O)NCCSSCCNC(=O)C6(O)C(O)C7(CC)C=CCN8CCC9(c%10cc(C%11(C(=O)OC)CC%12CN(CCc%13c%11[nH]c%11ccccc%13%11)CC%11(CC)OC%12%11)c(OC)cc%10N(C)C69)C87)C(O)C6(CC)C=CCN7CCC54C76)CC(C3)C1O2 (stereo not drawn) [Bis[β-(4-desacetylleurosine C-3 carboxamide)ethyl]disulfide disulfate]
prolongation of survival time (P388 leukemia; 15 mg/kg on three occasions): 55%
prolongation of survival time (P388 leukemia; 30 mg/kg on three occasions): 46%

CCC1(O)CC2CN(CCc3c([nH]c4ccccc34)C(C(=O)OC)(c3cc4c(cc3OC)N(C)C3C(O)(C(=O)OC)C(OC(C)=O)C5(CC)C=CCN6CCC43C65)C2)C1 (stereo not shown) [vincaleukoblastine]
activity in the treatment of experimental malignancies [1]: active

CC[C@@]1(O)CN2CCc3c([nH]c4ccccc34)[C@@](C(=O)OC)(c3cc4c(cc3OC)N(C)[C@@H]3[C@]45CCN4CC=C[C@@](CC)(C[C@]3(O)C(=O)OC)[C@H]45)C[C@@H](C2)C1O (stereo partly shown) [4-desacetoxy-3'-hydroxyvinblastine]
activity in the treatment of experimental malignancies [1]: active

CCC1(O)CC2CN(CCc3c([nH]c4ccccc34)C(C(=O)OC)(c3cc4c(cc3OC)N(C)C3C(O)(C(=O)OC)C(O)C5(CC)C=CCN6CCC43C65)C2)C1 (stereo not shown) [4-desacetyl VLB]
toxicity (P1534 murine leukemia): toxic material
in vivo chemotherapeutic activity (P1534 murine leukemia; P1534 murine leukemia system): little in vivo chemotherapeutic activity
anti-tumor activity (tumor): active anti-tumor agent

CCC1(O)CC2CN(CCc3c([nH]c4ccccc34)C(C(=O)OC)(c3cc4c(cc3OC)N(C=O)C3C(O)(C(=O)OC)C(OC(C)=O)C5(CC)C=CCN6CCC43C65)C2)C1 (stereo not shown) [leurocristine]
activity in the treatment of experimental malignancies [1]: active

CCC12CN3CCc4c([nH]c5ccccc45)C(C(=O)OC)(c4cc5c(cc4OC)N(C=O)C4C(O)(C(=O)OC)C(OC(C)=O)C6(CC)C=CCN7CCC54C76)CC(C3)C1O2 (stereo not shown) [leuroformine]
activity in the treatment of experimental malignancies [1]: active

CCC1(O)CN2CCc3c([nH]c4ccccc34)C(C(=O)OC)(c3cc4c(cc3OC)N(C)C3C(O)(C(=O)OC)C(OC(C)=O)C5(CC)C=CCN6CCC43C65)CC(O)(C2)C1 (stereo not shown) [leurocolombine]
activity in the treatment of experimental malignancies [1]: active

CC[C@]12CN3CCc4c([nH]c5ccccc45)[C@@](C(=O)OC)(c4cc5c(cc4OC)N(C)[C@H]4[C@@](O)(C(=O)OC)[C@H](OC(C)=O)[C@]6(CC)C=CCN7CC[C@]54[C@@H]76)C[C@H](C3)[C@H]1O2 [leurosine]
auto-oxidation [2]: auto-oxidizes to a 5'-hydroxy derivative
activity in the treatment of experimental malignancies [1]: active

CCC12CN3CCc4c([nH]c5ccccc45)C(C(=O)OC)(c4cc5c(cc4OC)N(C)C4C(O)(C(N)=O)C(O)C6(CC)C=CCN7CCC54C76)CC(C3)C1O2 (stereo not shown) [4-desacetylleurosine C-3 carboxamine, 4-Desacetylleurosine C-3 Carboxamide]
Percent Inhibition of tumor growth (Gardner lymphosarcoma; 3 mg/kg per day): 23%
Percent Inhibition of tumor growth (Gardner lymphosarcoma; 6 mg/kg per day): 100%
Toxicity (printed in Percent Inhibition column) (Gardner lymphosarcoma; 12 mg/kg per day): Toxic

CCC1(O)CN2CCc3c([nH]c4ccccc34)C(C(=O)OC)(c3cc4c(cc3OC)N(C)C3C(O)(C(=O)OC)C(OC(C)=O)C5(CC)C=CCN6CCC43C65)CC(C2)C1O (stereo not shown) [vincadioline]
activity in the treatment of experimental malignancies [1]: active

CCC12CN3CCc4c([nH]c5ccccc45)C(C(=O)OC)(c4cc5c(cc4OC)N(C)C4C(O)(C(=O)NCCSSCCNC(=O)C6(O)C(O)C7(CC)C=CCN8CCC9(c%10cc(C%11(C(=O)OC)CC%12CN(CCc%13c%11[nH]c%11ccccc%13%11)CC%11(CC)OC%12%11)c(OC)cc%10N(C)C69)C87)C(O)C6(CC)C=CCN7CCC54C76)CC(C3)C1O2 (stereo not drawn) [Bis[β-(4-desacetylleurosine C-3 carboxamido)ethyl]disulfide]
pKa (first) (pKa titration; [3]): 5.3
pKa (second) (pKa titration; [3]): 7.0

CC[C@@H]1C[C@@H]2CN(CCc3c([nH]c4ccccc34)[C@@](C(=O)OC)(c3cc4c(cc3OC)N(C)[C@H]3[C@@](O)(C(=O)OC)[C@H](OC(C)=O)[C@]5(CC)C=CCN6CC[C@]43[C@@H]65)C2)C1 [deoxy VLB "A"]
activity in the treatment of experimental malignancies [1]: active

CC[C@]1(O)C[C@@H]2CN(CCc3c([nH]c4ccccc34)[C@@](C(=O)OC)(c3cc4c(cc3OC)N(C)[C@@H]3[C@]45CCN4CC=C[C@@](CC)(C[C@]3(O)C(=O)OC)[C@H]45)C2)C1 [4-desacetoxy vinblastine]
activity in the treatment of experimental malignancies [1]: active

CCC12CN3CCc4c([nH]c5ccccc45)C(C(=O)OC)(c4cc5c(cc4OC)N(C)C4C(O)(C(=O)NN)C(O)C6(CC)C=CCN7CCC54C76)CC(C3)C1O2 (stereo not shown) [4-desacetylleurosine C-3 carboxhydrazide, 4-Desacetylleurosine C-3 Carboxhydrazide]
pKa (pKa titration; read-out: pKa (first)): 5.32
pKa (pKa titration; read-out: pKa (second)): 7.12
